Key:
Assay type in all cases: in vivo
[1] = test system: Johnsongrass (Sorghum halepense, SORHA); assay: Pre-emerge greenhouse herbicide test, phytotoxicity rating; details: 14 days after application, rating scale 0-100
Outline: (§1)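 Seeds sown in sandy loam one day before track-sprayer application of acetone solutions at 125–1000 g ai/ha (187 l/ha), then surface-watered to incorporate and bottom-watered. Injury scored visually at 14 days on a 0–100 scale (0 no damage, 100 complete death).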

[2] = test system: barnyardgrass (Echinochloa crusgalli, ECHCG); assay: as above; details: 14 days after application, rating scale 0-100
Outline: as §1

[3] = test system: common ragweed (Ambrosia artemisiifolia L., AMBEL); assay: as above; details: 14 days after application, rating scale 0-100
Outline: as §1

[4] = test system: green foxtail (Setaria viridis, SETVI); assay: as above; details: 14 days after application, rating scale 0-100
Outline: as §1

[5] = test system: ivyleaf morningglory (Ipomoea hederacea, IPOHE); assay: as above; details: 14 days after application, rating scale 0-100
Outline: as §1

[6] = test system: lambsquarters (Chenopodium album, CHEAL); assay: as above; details: 14 days after application, rating scale 0-100
Outline: as §1

[7] = test system: large crabgrass (Digitaria sanguinalis, DIGSA); assay: as above; details: 14 days after application, rating scale 0-100
Outline: as §1

[8] = test system: redroot pigweed (Amaranthus retroflexus, AMARE); assay: as above; details: 14 days after application, rating scale 0-100
Outline: as §1

[9] = test system: sicklepod (Cassia obtusifolia, CASOB); assay: as above; details: 14 days after application, rating scale 0-100
Outline: as §1

[10] = test system: velvetleaf (Abutilon theophrasti, ABUTH); assay: as above; details: 14 days after application, rating scale 0-100
Outline: as §1

[11] = test system: field corn (Zea mays L., var. Dekalb 535, CORN); assay: Pre-emerge greenhouse test, crop damage rating; details: 14 days after application, rating scale 0-100
Outline: as §1

[12] = test system: upland rice (Oryza sp., var.Tebonnet, RICE); assay: Pre-emerge greenhouse test, crop damage rating; details: 14 days after application, rating scale 0-100
Outline: as §1

[13] = test system: soybean (Glycine max L., var. Pella 86, SOY); assay: Pre-emerge greenhouse test, crop damage rating; parameters: key to SOY crop damage rating: 0 = no damage, 100 = complete death of all plants; details: 14 days after application, rating scale 0-100
Outline: as §1

[14] = test system: common ragweed (Ambrosia artemisiifolia L., AMBEL); assay: Post-emerge greenhouse herbicide test, phytotoxicity rating; details: 14 days after application, scale 0-100
Outline: (§2)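 Plants at the 2-3 leaf stage, sown 8-21 days earlier, were track-sprayed post-emergence with compound in acetone plus 0.25% v/v non-ionic surfactant at 63-1000 g ai/ha (187 l/ha). Damage was rated at 14 days on a 0-100 scale (0 none, 100 all plants dead), for both crop injury and weed control.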

[15] = test system: Johnsongrass (Sorghum halepense, SORHA); assay: as above; details: 14 days after application, scale 0-100
Outline: as §2

[16] = test system: barnyardgrass (Echinochloa crusgalli, ECHCG); assay: as above; details: 14 days after application, scale 0-100
Outline: as §2

[17] = test system: green foxtail (Setaria viridis, SETVI); assay: as above; details: 14 days after application, scale 0-100
Outline: as §2

[18] = test system: ivyleaf morningglory (Ipomoea hederacea, IPOHE); assay: as above; details: 14 days after application, scale 0-100
Outline: as §2

[19] = test system: lambsquarters (Chenopodium album, CHEAL); assay: as above; details: 14 days after application, scale 0-100
Outline: as §2

[20] = test system: large crabgrass (Digitaria sanguinalis, DIGSA); assay: as above; details: 14 days after application, scale 0-100
Outline: as §2

[21] = test system: redroot pigweed (Amaranthus retroflexus, AMARE); assay: as above; details: 14 days after application, scale 0-100
Outline: as §2

[22] = test system: velvetleaf (Abutilon theophrasti, ABUTH); assay: as above; details: 14 days after application, scale 0-100
Outline: as §2

[23] = test system: field corn (Zea mays L., var. Dekalb 535, CORN); assay: Post-emerge greenhouse test, crop damage rating; details: 14 days after application, scale 0-100
Outline: as §2

[24] = test system: upland rice (Oryza sp., var.Tebonnet, RICE); assay: Post-emerge greenhouse test, crop damage rating; details: 14 days after application, scale 0-100
Outline: as §2

[25] = test system: soybean (Glycine max L., var. Pella 86, SOY); assay: Post-emerge greenhouse test, crop damage rating; parameters: key to crop damage rating SOY: 0-100 scale: 0 = no damage, 100 = complete death of all plants; details: 14 days after application, scale 0-100
Outline: as §2

`O=c1n(-c2cc(Oc3ccccn3)c(Cl)cc2F)c(=S)n2n1CCCC2` [Compound 8-17] gave an SORHA phytotoxicity rating ([1]; Rate 125 g al/ha) of 50, an SORHA phytotoxicity rating ([1]; Rate 500 g al/ha) of 100 and an ECHCG phytotoxicity rating ([2]; Rate 125 g al/ha) of 85. It also gave an ECHCG phytotoxicity rating ([2]; Rate 500 g al/ha) of 100, an AMBEL phytotoxicity rating ([3]; Rate 125 g al/ha) of 100 and an AMBEL phytotoxicity rating ([3]; Rate 500 g al/ha) of 100. For the same molecule, the SETVI phytotoxicity rating ([4]; Rate 125 g al/ha) was 100, the SETVI phytotoxicity rating ([4]; Rate 500 g al/ha) was 100 and the IPOHE phytotoxicity rating ([5]; Rate 125 g al/ha) was 80. It also gave an IPOHE phytotoxicity rating ([5]; Rate 500 g al/ha) of 99, a CHEAL phytotoxicity rating ([6]; Rate 125 g al/ha) of 100 and a CHEAL phytotoxicity rating ([6]; Rate 500 g al/ha) of 100. The DIGSA phytotoxicity rating ([7]; Rate 125 g al/ha) was 100, the DIGSA phytotoxicity rating ([7]; Rate 500 g al/ha) was 100 and the AMARE phytotoxicity rating ([8]; Rate 125 g al/ha) was 100. For the same molecule, the AMARE phytotoxicity rating ([8]; Rate 500 g al/ha) was 100, the CASOB phytotoxicity rating ([9]; Rate 125 g al/ha) was 100 and the CASOB phytotoxicity rating ([9]; Rate 500 g al/ha) was 80. For the same molecule, the ABUTH phytotoxicity rating ([10]; Rate 125 g al/ha) was 100, the ABUTH phytotoxicity rating ([10]; Rate 500 g al/ha) was 100 and the “CORN crop damage rating” value ([11]; Rate 125 g al/ha) was 10. For the same molecule, the “CORN crop damage rating” value ([11]; Rate 500 g al/ha) was 30, the “RICE crop damage rating” value ([12]; Rate 125 g al/ha) was 50 and the “RICE crop damage rating” value ([12]; Rate 500 g al/ha) was 95. For the same molecule, the “SOY crop damage rating” value ([13]; Rate 125 g al/ha) was 0, the “SOY crop damage rating” value ([13]; Rate 500 g al/ha) was 95 and the “phytotoxicity rating AMBEL” value ([14]; rate 63 g ai/ha) was 60. For the same molecule, the “phytotoxicity rating AMBEL” value ([14]; rate 500 g ai/ha) was 100, the “phytotoxicity rating SORHA” value ([15]; rate 63 g ai/ha) was 50 and the “phytotoxicity rating SORHA” value ([15]; rate 500 g ai/ha) was 100. The “phytotoxicity rating ECHCG” value ([16]; rate 63 g ai/ha) was 90, the “phytotoxicity rating ECHCG” value ([16]; rate 500 g ai/ha) was 100 and the “phytotoxicity rating SETVI” value ([17]; rate 63 g ai/ha) was 50. For the same molecule, the “phytotoxicity rating SETVI” value ([17]; rate 500 g ai/ha) was 90, the “phytotoxicity rating IPOHE” value ([18]; rate 63 g ai/ha) was 100 and the “phytotoxicity rating IPOHE” value ([18]; rate 500 g ai/ha) was 100. For the same molecule, the “phytotoxicity rating CHEAL” value ([19]; rate 63 g ai/ha) was 99, the “phytotoxicity rating CHEAL” value ([19]; rate 500 g ai/ha) was 100 and the “phytotoxicity rating DIGSA” value ([20]; rate 63 g ai/ha) was 50. The “phytotoxicity rating DIGSA” value ([20]; rate 500 g ai/ha) was 90, the “phytotoxicity rating AMARE” value ([21]; rate 63 g ai/ha) was 100 and the “phytotoxicity rating AMARE” value ([21]; rate 500 g ai/ha) was 100. The “phytotoxicity rating ABUTH” value ([22]; rate 63 g ai/ha) was 100, the “phytotoxicity rating ABUTH” value ([22]; rate 500 g ai/ha) was 100 and the “crop damage rating CORN” value ([23]; rate 63 g ai/ha) was 20. The “crop damage rating CORN” value ([23]; rate 500 g ai/ha) was 10, the “crop damage rating RICE” value ([24]; rate 63 g ai/ha) was 40 and the “crop damage rating RICE” value ([24]; rate 500 g ai/ha) was 90. For the same molecule, the “crop damage rating SOY” value ([25]; rate 63 g ai/ha) was 90 and the “crop damage rating SOY” value ([25]; rate 500 g ai/ha) was 100.

Reference: US6479435B1, “Diaryl ethers and processes for their preparation and herbicidal and desiccant compositions containing them” (ISK Americas Incorporated, priority 1997, dated 2002)
